Literature values as cited in US8124123B2, “Controlled release azithromycin solid dosages forms” (Dow Pharmaceutical Sciences, Inc., priority 2007, dated 2012).

Columns and labels:
[1] = oral administration; reported with single 1000 mg dose and 1500 mg over 5 days

CC[C@H]1OC(=O)[C@H](C)[C@@H](O[C@H]2C[C@@](C)(OC)[C@@H](O)[C@H](C)O2)[C@H](C)[C@@H](O[C@@H]2O[C@H](C)C[C@H](N(C)C)[C@H]2O)[C@](C)(O)C[C@@H](C)CN(C)[C@H](C)[C@@H](O)[C@]1(C)O [azithromycin, 9-deoxo-9a-aza-9a-methyl-9a-homoerythromycin A]
fraction of azithromycin released into the stomach that may be destroyed (about one hour in the stomach, low pH environment): approximately one third | chemical stability at pH 1 (pH found in stomach contents following a meal): chemically unstable | gastrointestinal side effects [1]: dose-related incidence of gastrointestinal side effects
